{
  "source": "patent US9062088B2",
  "about": "“CDK-inhibiting pyrrolopyrimidine carboxamide derivative or pharmaceutically acceptable salt thereof, and pharmaceutical composition containing the same as active ingredient for preventing or treating hepatocellular carcinoma” (SNU R&DB Foundation, priority 2010, dated 2015)",
  "key": {"p-Nucleolin (Cdk1)": {"tested_on": "p-Nucleolin (Cdk1)", "assay": "Western blotting of p-nucleolin (Cdk1) in SNU-354 cells", "type": "cell-based, human", "description": "(§1) SNU-354 cells were cultured in RPMI 1640 (Invitrogen, CA, USA) supplemented with 10% FBS (Invitrogen) and antibiotics/antimycotics (Invitrogen) in a 5% CO2 incubator at 37° C. […]\n(§2) After treating the compound of Example 2 to SNU-354 cells, cell pellet was lysed with lysis buffer (0.5% triton X-100, 20 mM Tris-HCl (pH 7.5), 2 mM magnesium chloride, 1 mM DTT, 1 mM EGTA, 50 mM β-glycerophosphate, 25 mM sodium fluoride, 1 mM Na3VO4, 2 μg/mL leupeptin, 2 μg/mL pepstatin A, 100 μg/mL phenylmethylsulfonyl fluoride, and 1 μg/mL antipain) at 4° C. for 1 hour, followed by quantification of protein. A proper amount of protein was electrophoresed on SDS-PAGE gel and then transferred onto polyvinylidene difluoride membrane (Millipore Co., Bedford, Mass.). The membrane was reacted in inhibiting solution (PBS, 5% skim milk, 0.1% tween-20) at room temperature for 1˜2 hours. The membrane was reacted with the primary antibody (goat anti-phospho-Rb, rabbit anti-nucleolin) diluted in the inhibiting solution (1:1000). Then, the membrane was washed with PBST, followed by reaction with the proper secondary antibody (horseradish peroxidase (HRP) conjugated) at room temperature for 1 hour."}, "p-Rb (Cdk2)": {"tested_on": "p-Rb (Cdk2)", "assay": "Western blotting of p-Rb (Cdk2) in SNU-354 cells", "type": "cell-based, human", "description": "as §1, §2"}, "[1]": {"tested_on": "Mcl-1, survivin, XIAP mRNA", "assay": "RT-PCR of Mcl-1, survivin, XIAP mRNA in SNU-354 cells", "type": "cell-based, human", "conditions": "FIG. 14", "description": "Total RNA was extracted from SNU-354 cells treated with the compound of Example 2 according to the conventional method. For reverse transcription, 5 μg of the extracted RNA and M-MLV reverse transcriptase (Promega Corporation, WI, USA) were used. Reverse Transcription was induced at 37° C. for 1 hour, followed by further reaction at 95° C. for 5 minutes. For PCR, 5 μl of cDNA obtained from the reverse transcription was used as a template and Taq DNA polymerase was used. Total reaction volume was 50 μl. PCR was performed as follows; predenaturation at 95° C. for 5 minutes, denaturation at 95° C. for 1 minute, annealing at 56° C. for 1 minute, polymerization at 72° C. for 1 minute, 30 cycles from denaturation to polymerization, and final extension at 72° C. for 10 minutes. After PCR, the PCR products were analyzed by electrophoresis on 1% agarose gel. The forward primer for Mcl-1 was 5′-CGGTAATCGGACTCAACCTC-3′ (SEQ ID NO: 1) and the reverse primer was 5′-CCT CCT TCT CCG TAG CCA A-3′ (SEQ ID NO: 2). The forward primer for XIAP was 5′-AGTGGTAGTCCTGTTTCAGCATCA-3′ (SEQ ID NO: 3) and the reverse primer was 5′-CCG CAC GGT ATC TCC TTC A-3′ (SEQ ID NO: 4). The forward primer for survivin was 5′-TGC CTG GCA GCC CTT TC-3′ (SEQ ID NO: 5) and the reverse primer was 5′-CCTCCAAGAAGGGCCAGTTC-3′ (SEQ ID NO. 6). […]"}, "[2]": {"tested_on": "SNU-354 xenografted tumor", "assay": "SNU-354 cancer xenograft, tumor growth", "type": "in vivo", "conditions": "5 times/week for 3 weeks, nude mice", "description": "(§3) Male nude mice at 5˜6 weeks were purchased from Central Lab. Animal Inc. (Republic of Korea). The mice were raised in the test animal laboratory at College of Pharmacy, Seoul National University. All the experiments with test animals were performed by the protocol set by Institute of Laboratory Animal Resources, Seoul National University. 1×10^7 cells of the human hepatocellular carcinoma cell line SNU-354 were suspended in 200 μl of PBS, which was injected into the right front paw of the mouse by subcutaneous injection, followed by observation until the xenograft tumor grew to 100±30 mm^3. The mice having tumors reaching the proper size were divided into three groups (n=8). One of the groups was used as the control (treated with vehicle) and the other two groups were treated with the compound of Example 2 at the concentrations of 4 mg/kg and 20 mg/kg respectively, once a day for 3 weeks (5 times/week) by intraperitoneal injection. The control group was treated with 5% ethanol and 30% polyethylene glycol 200 (Fluka, Netherlands). The administration schedule was marked on data. Tumor size, body weight and other conditions of the animal were observed every day until the tumor size reached 2000 mm^3. The tumor size was calculated by V=a×b×c×π/6 (a=long axis of the tumor, b=short axis of the tumor, c=height of the tumor). 33 days after the treatment, the mice were sacrificed. […]"}, "[3]": {"assay": "Body weight of xenograft mice", "type": "in vivo, nude mice", "conditions": "4 mg/kg and 20 mg/kg intraperitoneal; FIG. 21", "description": "as §3"}, "[4]": {"tested_on": "SNU-354 xenografted tumor", "assay": "TUNEL assay and cleaved caspase-3 immunohistochemistry of xenografted tumor", "type": "in vivo, nude mice", "conditions": "4 and 20 mg/kg vs control; FIG. 23-A", "description": "(§4) All the xenografted tumors and liver tissues extracted above were fixed in 36% formaldehyde solution (Junsei Chemical Co., Ltd, Tokyo, JAPAN), followed by paraffin embedding. The embedded tissues were cut into 5 μm sections. H&E staining and TUNEL assay were performed for examining apoptosis with those sections. The expression of cleaved caspase-3 in the tissue section was measured by using cleaved caspase-3 monoclonal antibody (Cell Signaling, MA, USA). ABC peroxidase (Dako Cytomation California, Inc., CA, USA) labeling was performed for immunological sensitization and the results are shown in FIG. 23. As shown in FIG. 23-A, TUNEL positive spots and caspase-3 positive spots were observed more in the group treated with the compound of Example 2 than in the control. […] As shown in FIG. 23-B, it was investigated whether or not the compound of Example 2 could affect normal liver tissues."}, "normal liver tissues": {"tested_on": "normal liver tissues", "assay": "TUNEL assay and caspase-3 immunohistochemistry of normal liver tissues", "type": "in vivo, nude mice", "conditions": "treated mice; FIG. 23-B", "description": "as §4"}},
  "data": [
    {"smiles": "CC(C)C(=O)OC[C@@H]1O[C@H](n2cnc(N)c3c(C(N)=O)c(Br)nc2-3)[C@H](O)[C@H]1O", "note": "[Example 2, ((2S,3R,4R,5S)-5-(4-amino-6-bromo-5-carbamoyl-1H-pyrrolo[2,3-d]pyrimidin-1-yl)-3,4-dihydroxy-tetrahydrofuran-2-yl)methyl isobutyrate]", "values": [
      {"measurement": "Phosphorylation (%) p-Nucleolin (Cdk1)", "setting": "p-Nucleolin (Cdk1); treatment time 6 (hours)", "value": 96.9, "unit": "%"},
      {"measurement": "Phosphorylation (%) p-Nucleolin (Cdk1)", "setting": "p-Nucleolin (Cdk1); treatment time 12 (hours)", "value": 11.7, "unit": "%"},
      {"measurement": "Phosphorylation (%) p-Nucleolin (Cdk1)", "setting": "p-Nucleolin (Cdk1); treatment time 18 (hours)", "value": 3.1, "unit": "%"},
      {"measurement": "Phosphorylation (%) p-Nucleolin (Cdk1)", "setting": "p-Nucleolin (Cdk1); treatment time 24 (hours)", "value": 3.0, "unit": "%"},
      {"measurement": "Phosphorylation (%) p-Rb(Cdk2)", "setting": "p-Rb (Cdk2); treatment time 6 (hours)", "value": 3.6, "unit": "%"},
      {"measurement": "Phosphorylation (%) p-Rb(Cdk2)", "setting": "p-Rb (Cdk2); treatment time 12 (hours)", "value": 2.7, "unit": "%"},
      {"measurement": "Phosphorylation (%) p-Rb(Cdk2)", "setting": "p-Rb (Cdk2); treatment time 18 (hours)", "value": 0.6, "unit": "%"},
      {"measurement": "Phosphorylation (%) p-Rb(Cdk2)", "setting": "p-Rb (Cdk2); treatment time 24 (hours)", "value": 0.3, "unit": "%"},
      {"measurement": "Mcl-1, survivin and XIAP mRNA", "setting": "[1]", "value": "decrease of mRNA"},
      {"measurement": "growth of the tumor reduced at average, compared with the control", "setting": "[2]; 4 mg/kg/day intraperitoneal", "value": 15, "unit": "%"},
      {"measurement": "growth of the tumor reduced at average, compared with the control", "setting": "[2]; 20 mg/kg/day intraperitoneal", "value": 47, "unit": "%"},
      {"measurement": "weight change of test animals", "setting": "[3]", "value": "no weight change"},
      {"measurement": "TUNEL positive spots and caspase-3 positive spots in xenografted tumor", "setting": "[4]", "value": "observed more"},
      {"measurement": "apoptosis in normal liver tissues (TUNEL, caspase-3 immunohistochemistry)", "setting": "normal liver tissues", "value": "apoptosis was not observed at all"}
    ]}
  ]
}
